Reference: the supplement of paper PMC11451515

Tested on: NOMO1
Assay: cell viability relative to DMSO control; higher = less cytotoxic
Conditions: 48 h
How it was run: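 Leukemia cells (NOMO1 or SEM, 500 cells/well; P12-Ichikawa, 1000 cells/well) were seeded in 5 μl in 1536-well plates after at least four passages of adaptation to each medium. They received library compounds in DMSO by pin dosing, 11 threefold points from 47 μM to 0.79 nM. Luminescence with CellTiter-Glo One was read after 48 h at 37°C. Viability is stated per plate relative to DMSO wells, with cell-free wells as background.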

[1] = HPLM + 10% dialyzed FBS, 0.000781 µM
[2] = HPLM + 10% dialyzed FBS, 0.00234 µM
[3] = HPLM + 10% dialyzed FBS, 0.00702 µM
[4] = HPLM + 10% dialyzed FBS, 0.0211 µM
[5] = HPLM + 10% dialyzed FBS, 0.0632 µM
[6] = HPLM + 10% dialyzed FBS, 0.19 µM
[7] = HPLM + 10% dialyzed FBS, 0.569 µM
[8] = HPLM + 10% dialyzed FBS, 1.71 µM
[9] = HPLM + 10% dialyzed FBS, 5.12 µM
[10] = HPLM + 10% dialyzed FBS, 15.4 µM
[11] = HPLM + 10% dialyzed FBS, 46.1 µM
[12] = RPMI 5 mM glucose + 10% FBS, 0.000781 µM
[13] = RPMI 5 mM glucose + 10% FBS, 0.00234 µM
[14] = RPMI 5 mM glucose + 10% FBS, 0.00702 µM
[15] = RPMI 5 mM glucose + 10% FBS, 0.0211 µM
[16] = RPMI 5 mM glucose + 10% FBS, 0.0632 µM
[17] = RPMI 5 mM glucose + 10% FBS, 0.19 µM
[18] = RPMI 5 mM glucose + 10% FBS, 0.569 µM
[19] = RPMI 5 mM glucose + 10% FBS, 1.71 µM
[20] = RPMI 5 mM glucose + 10% FBS, 5.12 µM
[21] = RPMI 5 mM glucose + 10% FBS, 15.4 µM
[22] = RPMI 5 mM glucose + 10% FBS, 46.1 µM
[23] = RPMI 5 mM glucose + 10% dialyzed FBS, 0.000781 µM
[24] = RPMI 5 mM glucose + 10% dialyzed FBS, 0.00234 µM
[25] = RPMI 5 mM glucose + 10% dialyzed FBS, 0.00702 µM
[26] = RPMI 5 mM glucose + 10% dialyzed FBS, 0.0211 µM
[27] = RPMI 5 mM glucose + 10% dialyzed FBS, 0.0632 µM
[28] = RPMI 5 mM glucose + 10% dialyzed FBS, 0.19 µM
[29] = RPMI 5 mM glucose + 10% dialyzed FBS, 0.569 µM
[30] = RPMI 5 mM glucose + 10% dialyzed FBS, 1.71 µM
[31] = RPMI 5 mM glucose + 10% dialyzed FBS, 5.12 µM
[32] = RPMI 5 mM glucose + 10% dialyzed FBS, 15.4 µM
[33] = RPMI 5 mM glucose + 10% dialyzed FBS, 46.1 µM

COC1=CC=C2C(=CC=NC2=C1)OC3=CC=C(NC(=O)\C4=C(C)\N(CC(C)(C)O)N(C4=O)C5=CC=CC=C5)C=C3F showed a cell viability [1] of 124%, a cell viability [2] of 116% and a cell viability [3] of 104%. For the same compound, the cell viability [4] was 115%, the cell viability [5] was 132% and the cell viability [6] was 120%. The cell viability [7] was 108%, the cell viability [8] was 107% and the cell viability [9] was 125%. The cell viability [10] was 110% and the cell viability [11] was 105%.
For CCCn1c(=O)c2[nH]c(-c3cnn(Cc4cccc(C(F)(F)F)c4)c3)nc2n(CC)c1=O, the cell viability [1] was 111%, the cell viability [2] was 113% and the cell viability [3] was 102%. For the same compound, the cell viability [4] was 125%, the cell viability [5] was 115% and the cell viability [6] was 116%. The cell viability [7] was 96%, the cell viability [8] was 82.4% and the cell viability [9] was 64.1%. For the same compound, the cell viability [10] was 56.4%, the cell viability [11] was 43.5% and the cell viability [12] was 92.7%. It also gave a cell viability [13] of 93.1%, a cell viability [14] of 101% and a cell viability [15] of 103%. It also gave a cell viability [16] of 103%, a cell viability [17] of 105% and a cell viability [18] of 102%. For the same compound, the cell viability [19] was 98.8%, the cell viability [20] was 82.7% and the cell viability [21] was 69.8%. It also gave a cell viability [22] of 61.5%, a cell viability [23] of 98.6% and a cell viability [24] of 104%. The cell viability [25] was 92.1%, the cell viability [26] was 81.6% and the cell viability [27] was 105%. The cell viability [28] was 103%, the cell viability [29] was 85.3% and the cell viability [30] was 80.6%. The cell viability [31] was 76.9%, the cell viability [32] was 65.2% and the cell viability [33] was 44.7%.
Cl.Cl.Fc1ccc(C(OCCN2CCN(CCCc3ccccc3)CC2)c2ccc(F)cc2)cc1 showed a cell viability [1] of 120%, a cell viability [2] of 113% and a cell viability [3] of 127%. The cell viability [4] was 125%, the cell viability [5] was 139% and the cell viability [6] was 123%. It also gave a cell viability [7] of 127%, a cell viability [8] of 130% and a cell viability [9] of 104%. For the same compound, the cell viability [10] was 93.1%, the cell viability [11] was 11.3% and the cell viability [12] was 119%. It also gave a cell viability [13] of 116%, a cell viability [14] of 116% and a cell viability [15] of 119%. The cell viability [16] was 111%, the cell viability [17] was 109% and the cell viability [18] was 117%. It also gave a cell viability [19] of 113%, a cell viability [20] of 108% and a cell viability [21] of 116%. For the same compound, the cell viability [22] was 18.5%, the cell viability [23] was 113% and the cell viability [24] was 129%. For the same compound, the cell viability [25] was 113%, the cell viability [26] was 126% and the cell viability [27] was 123%. The cell viability [28] was 135%, the cell viability [29] was 112% and the cell viability [30] was 118%. For the same compound, the cell viability [31] was 122%, the cell viability [32] was 96.4% and the cell viability [33] was 12.9%.
NC/1=N/C(=O)N(/C=C1)[C@H]2CC[C@@H](CO)O2 showed a cell viability [1] of 76%, a cell viability [2] of 106% and a cell viability [3] of 107%. For the same compound, the cell viability [4] was 103%, the cell viability [5] was 97.5% and the cell viability [6] was 101%. The cell viability [7] was 107%, the cell viability [8] was 92.1% and the cell viability [9] was 82.8%. For the same compound, the cell viability [10] was 82.2%, the cell viability [11] was 14.2% and the cell viability [12] was 75.6%. It also gave a cell viability [13] of 91.3%, a cell viability [14] of 85.7% and a cell viability [15] of 96.4%. For the same compound, the cell viability [16] was 87.1%, the cell viability [17] was 92.3% and the cell viability [18] was 85.7%. For the same compound, the cell viability [19] was 89.2%, the cell viability [20] was 91% and the cell viability [21] was 93.1%. It also gave a cell viability [22] of 8.01%, a cell viability [23] of 70.8% and a cell viability [24] of 94.6%. For the same compound, the cell viability [25] was 92.2%, the cell viability [26] was 98.5% and the cell viability [27] was 101%. The cell viability [28] was 105%, the cell viability [29] was 108% and the cell viability [30] was 95.9%. The cell viability [31] was 74%, the cell viability [32] was 88.7% and the cell viability [33] was 6.05%.
O=C(c1ccc(F)cc1)C1CCN(CCn2c(=O)[nH]c3ccccc3c2=O)CC1 showed a cell viability [1] of 122%, a cell viability [2] of 117% and a cell viability [3] of 111%. It also gave a cell viability [4] of 128%, a cell viability [5] of 136% and a cell viability [6] of 114%. For the same compound, the cell viability [7] was 127%, the cell viability [8] was 120% and the cell viability [9] was 143%. The cell viability [10] was 111%, the cell viability [11] was 104% and the cell viability [12] was 107%. It also gave a cell viability [13] of 118%, a cell viability [14] of 117% and a cell viability [15] of 118%. For the same compound, the cell viability [16] was 105%, the cell viability [17] was 111% and the cell viability [18] was 127%. For the same compound, the cell viability [19] was 106%, the cell viability [20] was 105% and the cell viability [21] was 111%. The cell viability [22] was 98.8%.
Compound CCOC(=O)c1ccc(C#Cc2ccc3c(c2)C(C)(C)CCS3)nc1 has a cell viability [1] of 101%, a cell viability [2] of 109% and a cell viability [3] of 122%. The cell viability [4] was 108%, the cell viability [5] was 86.1% and the cell viability [6] was 104%. It also gave a cell viability [7] of 103%, a cell viability [8] of 101% and a cell viability [9] of 97.8%. For the same compound, the cell viability [10] was 89.1%, the cell viability [11] was 79.6% and the cell viability [12] was 94%. It also gave a cell viability [13] of 108%, a cell viability [14] of 91.6% and a cell viability [15] of 100%. For the same compound, the cell viability [16] was 93.3%, the cell viability [17] was 94% and the cell viability [18] was 107%. It also gave a cell viability [19] of 96.8%, a cell viability [20] of 99.4% and a cell viability [21] of 98.6%. For the same compound, the cell viability [22] was 94.2%, the cell viability [23] was 90% and the cell viability [24] was 108%. The cell viability [25] was 104%, the cell viability [26] was 109% and the cell viability [27] was 97.9%. It also gave a cell viability [28] of 90.2%, a cell viability [29] of 90.7% and a cell viability [30] of 94.9%. It also gave a cell viability [31] of 94.6%, a cell viability [32] of 99.6% and a cell viability [33] of 88.7%.
Compound CCCCc1oc2ccc(NS(C)(=O)=O)cc2c1C(=O)c1ccc(OCCCN(CCCC)CCCC)cc1 has a cell viability [1] of 109%, a cell viability [2] of 107% and a cell viability [3] of 100%. For the same compound, the cell viability [4] was 105%, the cell viability [5] was 96.7% and the cell viability [6] was 113%. For the same compound, the cell viability [7] was 114%, the cell viability [8] was 64.7% and the cell viability [9] was 34%. The cell viability [10] was 27.5%, the cell viability [11] was 14.4% and the cell viability [12] was 86.9%. For the same compound, the cell viability [13] was 98%, the cell viability [14] was 103% and the cell viability [15] was 98.3%. It also gave a cell viability [16] of 97.1%, a cell viability [17] of 93.4% and a cell viability [18] of 103%. It also gave a cell viability [19] of 28.8%, a cell viability [20] of 17.8% and a cell viability [21] of 16.4%. The cell viability [22] was 9.17%, the cell viability [23] was 83.2% and the cell viability [24] was 95.5%. The cell viability [25] was 102%, the cell viability [26] was 102% and the cell viability [27] was 93.7%. It also gave a cell viability [28] of 106%, a cell viability [29] of 103% and a cell viability [30] of 66%. For the same compound, the cell viability [31] was 28.3%, the cell viability [32] was 20.6% and the cell viability [33] was 12.5%.
Compound COc1ccc(CCC(=O)Nc2nc3ccc(Cl)cc3s2)cc1OC has a cell viability [1] of 120%, a cell viability [2] of 106% and a cell viability [3] of 111%. It also gave a cell viability [4] of 135%, a cell viability [5] of 122% and a cell viability [6] of 126%. The cell viability [7] was 123%, the cell viability [8] was 101% and the cell viability [9] was 106%. It also gave a cell viability [10] of 122%, a cell viability [11] of 86.2% and a cell viability [12] of 107%. The cell viability [13] was 104%, the cell viability [14] was 113% and the cell viability [15] was 105%. For the same compound, the cell viability [16] was 122%, the cell viability [17] was 117% and the cell viability [18] was 113%. It also gave a cell viability [19] of 94.4%, a cell viability [20] of 105% and a cell viability [21] of 100%. It also gave a cell viability [22] of 96.6%, a cell viability [23] of 114% and a cell viability [24] of 99.3%. It also gave a cell viability [25] of 119%, a cell viability [26] of 108% and a cell viability [27] of 120%. For the same compound, the cell viability [28] was 110%, the cell viability [29] was 106% and the cell viability [30] was 102%. For the same compound, the cell viability [31] was 104%, the cell viability [32] was 98.2% and the cell viability [33] was 91.2%.
